Reference: PMC11063903, “Engineering a human P2X2 receptor with altered ligand selectivity in yeast” (The Journal of Biological Chemistry, 2024)

Columns and labels:
P2X2 F303Y+A304W = molecular target: T1, P2X2 F303Y+A304W (Homo sapiens, UniProt Q9UBL9, A304W/F303Y); assay: Fast GCaMP-mScarletI assay in yeast, P2X2 F303Y+A304W; assay type: cell-based; conditions: for Bottom, best fit value / Hillslope, best fit value / Top, best fit value: four-parameter logistic fit of ΔF/ΔT
T1 construct: expressed in transfected cells; host or cells: S. cerevisiae BY4741 background
T1 sequence (Q9UBL9 1-471 F303Y/A304W): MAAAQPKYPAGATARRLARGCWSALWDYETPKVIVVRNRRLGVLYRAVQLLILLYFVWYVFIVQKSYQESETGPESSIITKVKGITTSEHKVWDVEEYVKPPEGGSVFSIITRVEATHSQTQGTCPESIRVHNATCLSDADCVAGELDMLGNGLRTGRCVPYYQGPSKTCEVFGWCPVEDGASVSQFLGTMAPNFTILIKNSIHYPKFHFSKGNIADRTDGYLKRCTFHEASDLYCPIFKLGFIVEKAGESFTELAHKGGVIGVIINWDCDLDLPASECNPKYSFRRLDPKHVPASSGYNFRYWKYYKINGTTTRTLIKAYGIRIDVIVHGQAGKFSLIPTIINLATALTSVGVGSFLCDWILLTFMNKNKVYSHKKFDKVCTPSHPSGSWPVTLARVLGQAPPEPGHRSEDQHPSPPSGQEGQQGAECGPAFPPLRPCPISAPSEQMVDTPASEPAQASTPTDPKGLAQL
Experimental: Figure 4 Unnatural-ligand gating in LBD libraries.A, WT P2X2 was tested with 1 mM ATP, 500 μM AMP-PNP, and compared to ATP with the broken receptor (K81C K83C) control with 1 mM ATP in the fast GCaMP-mScarletI assay (n = 3). […] B, heat map summarizing AMP-PNP signaling (ΔF/ΔT, fast GCaMP-mScarletI assay) in the site-saturation libraries (n = 2–3). All values are normalized to WT P2X2 with saturating amounts of AMP-PNP (500 μM) and therefore represent low signal (ΔF/ΔT) compared to the ATP ligand. C, F301W, F303Y, and A304W were combinatorially combined and tested against the WT, K81C K83C broken P2X2, and the single mutant clones with both ATP (1 mM, black) and AMP-PNP (500 μM, pink). […] Values here represent signal onset and are not normalized to a positive control (n = 2–5). D–K, dose response of each P2X variant with both ATP (black) and AMP-PNP (pink) in the fast GCaMP-mScarletI assay (n = 3). Statistics were performed via one-way ANOVA with Dunnett’s multiple comparisons with to the “broken” K81C K83C negative control. ∗ represents a p value ≤0.05, ∗∗ is p ≤ 0.01, and ∗∗∗ is p ≤ 0.001.
The combined mutations were synergistic, with F303Y + A304W having a predicted additive effect of ca. Ten-fold, relative to the 73-fold seen.
GCaMP assays were performed as follows. P2X2 GCaMP strains were designed with a bi-cistronic reporter, in which the GCaMP protein was followed by a 2A peptide and a mScarletI reporter ([53]). The co-translated mScarletI was designed to act as a control for plasmid loss, GCaMP breakage via nonsense mutation, and contamination. […] P2X2-GCaMP strains were cultured and induced as previously described. Samples were induced for 24 h to allow for the accumulation of the mature GCaMP protein. Cells were washed three times in 0.1 M MES/Tris buffer and resuspended with MES/Tris with supplemental calcium. Cells were loaded onto a black, clear bottom microplate and imaged on a FlexStation3 plate reader. Samples were imaged in “flex” mode. Samples were imaged for 48 s at an interval of 1.6 s. Fluorescence was measured with an excitation at 485 nm, and emission 525 nm. At the 21 s mark, 100 μl ligand solution was transferred to the cells. For strains with mScarlet, fluorescence was read with excitation 570 nm/emission 610 nm. Slopes were calculated from the last 6 points of measurement and were normalized to the positive control samples. Any replicate in which the mScarlet value was measured to be over 2 standard deviations less than the mean for that set was discarded from further analysis.
For multiple comparisons in the site-saturation screening data, One-way ANOVA with Dunnett’s multiple comparisons test was performed where every sample was compared to the “broken” negative control. Significance was plotted where ∗ represents a p value ≤0.05, ∗∗ is p ≤0.01, and ∗∗∗ is p ≤0.001. Dose–response curves were fit with nonlinear regression software using a four-parameter logistic curve. All statistics were calculated and plotted in Graphpad Prism software.

P2X2 G353R = molecular target: T2, P2X2 G353R (Homo sapiens, UniProt Q9UBL9, G353R); assay: Site-saturation screen, fast kinetic assay in yeast, G353R; assay type: cell-based; conditions: 500 μM ATP, ΔF/ΔT normalized to WT
T2 construct: expressed in transfected cells; host or cells: S. cerevisiae BY4741 background
T2 sequence (Q9UBL9 whole entry G353R): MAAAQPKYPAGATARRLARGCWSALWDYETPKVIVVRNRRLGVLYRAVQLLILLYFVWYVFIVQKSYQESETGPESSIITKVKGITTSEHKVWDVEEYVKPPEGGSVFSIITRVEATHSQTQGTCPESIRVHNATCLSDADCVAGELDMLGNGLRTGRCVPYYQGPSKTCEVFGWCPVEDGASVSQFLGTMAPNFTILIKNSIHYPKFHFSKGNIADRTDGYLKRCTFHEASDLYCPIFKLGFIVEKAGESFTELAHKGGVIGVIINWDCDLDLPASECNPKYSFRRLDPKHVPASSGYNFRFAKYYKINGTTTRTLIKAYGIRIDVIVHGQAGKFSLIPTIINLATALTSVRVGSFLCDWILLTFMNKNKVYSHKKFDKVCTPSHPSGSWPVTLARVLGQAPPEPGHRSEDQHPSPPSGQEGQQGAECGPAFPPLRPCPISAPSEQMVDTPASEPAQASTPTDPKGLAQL
Experimental: Figure 2 P2X2 SNP testing.A, homology model of P2X2 with the clinically implicated SNPs highlighted. V60 is highlighted in magenta and G353 is highlighted in dark blue. Lines indicate the positions of the mutations on each of the three monomers. B, zoomed view of the transmembrane region from the purple box in (A). V60 is magenta and G353 is dark blue. The structure is rotated 60° on the right image. C, screening data from site-saturation of the V60 residue in saturating ATP concentration (500 μM f.c.) using the fast kinetic assay. Signal onset values (ΔF/ΔT) are normalized to values from the WT receptor. […] Each of 2 to 3 replicates is represented as a single point. […]
GCaMP assays were performed as follows. […] Cells were loaded onto a black, clear bottom microplate and imaged on a FlexStation3 plate reader. […] Fluorescence was measured with an excitation at 485 nm, and emission 525 nm. […] For strains with mScarlet, fluorescence was read with excitation 570 nm/emission 610 nm. Slopes were calculated from the last 6 points of measurement and were normalized to the positive control samples. Any replicate in which the mScarlet value was measured to be over 2 standard deviations less than the mean for that set was discarded from further analysis.

Structure (SMILES)	increased intracellular calcium amplitudes compared to the WT receptor (P2X2 F303Y+A304W; AMP-PNP, abstract)	increased signal compared to the WT channel (rate of signal onset ΔF/ΔT) (P2X2 F303Y+A304W; at 500 μM AMP-PNP)	Bottom, best fit value (P2X2 F303Y+A304W; n = 3)	Hillslope, best fit value (P2X2 F303Y+A304W; n = 3)	Top, best fit value (P2X2 F303Y+A304W; n = 3)	EC50 (P2X2 F303Y+A304W; four-parameter logistic fit, n = 3, unit inferred, unit M, read-out: EC50, best fit value)	function in the assay (P2X2 G353R)
Nc1ncnc2c1ncn2[C@@H]1O[C@H](COP(=O)(O)OP(=O)(O)NP(=O)(O)O)[C@@H](O)[C@H]1O [AMP-PNP]	over 100 fold	73 fold	1.254	2.515	114.4	–	–
Nc1ncnc2c1ncn2[C@@H]1O[C@H](COP(=O)(O)OP(=O)(O)OP(=O)(O)O)[C@@H](O)[C@H]1O [ATP]	–	–	1.98	3.50	150.00	6.67 µM	not observed to be functional
